In ChEMBL document CHEMBL1221291, “Studies on the structure-activity relationship of 1,3,3,4-tetra-substituted pyrrolidine embodied CCR5 receptor antagonists. Part 2: Discovery of highly potent anti-HIV agents” (Bioorg Med Chem Lett, 2010):

Key:
[1] = molecular target: C-C chemokine receptor type 5 (Homo sapiens, UniProt P51681); assay: Inhibition of human CCR5 expressed in CHO cells assessed as inhibition of RANTES-stimulated [35S]GTPgammaS binding; assay type: functional, cell-based
[2] = system: Human immunodeficiency virus 1; assay: Antiviral activity against R5 tropic HIV1 BaL infected in human PBMC; assay type: functional, organism-based; conditions: Human immunodeficiency virus 1, BaL
hERG (KCNH2) = hERG (KCNH2) (Homo sapiens, UniProt Q12809); assay: Inhibition of human ERG at 1 uM
[3] = Cytotoxicity against human PBMC; assay type: cell-based

Sequence of hERG (KCNH2) (Q12809 whole entry): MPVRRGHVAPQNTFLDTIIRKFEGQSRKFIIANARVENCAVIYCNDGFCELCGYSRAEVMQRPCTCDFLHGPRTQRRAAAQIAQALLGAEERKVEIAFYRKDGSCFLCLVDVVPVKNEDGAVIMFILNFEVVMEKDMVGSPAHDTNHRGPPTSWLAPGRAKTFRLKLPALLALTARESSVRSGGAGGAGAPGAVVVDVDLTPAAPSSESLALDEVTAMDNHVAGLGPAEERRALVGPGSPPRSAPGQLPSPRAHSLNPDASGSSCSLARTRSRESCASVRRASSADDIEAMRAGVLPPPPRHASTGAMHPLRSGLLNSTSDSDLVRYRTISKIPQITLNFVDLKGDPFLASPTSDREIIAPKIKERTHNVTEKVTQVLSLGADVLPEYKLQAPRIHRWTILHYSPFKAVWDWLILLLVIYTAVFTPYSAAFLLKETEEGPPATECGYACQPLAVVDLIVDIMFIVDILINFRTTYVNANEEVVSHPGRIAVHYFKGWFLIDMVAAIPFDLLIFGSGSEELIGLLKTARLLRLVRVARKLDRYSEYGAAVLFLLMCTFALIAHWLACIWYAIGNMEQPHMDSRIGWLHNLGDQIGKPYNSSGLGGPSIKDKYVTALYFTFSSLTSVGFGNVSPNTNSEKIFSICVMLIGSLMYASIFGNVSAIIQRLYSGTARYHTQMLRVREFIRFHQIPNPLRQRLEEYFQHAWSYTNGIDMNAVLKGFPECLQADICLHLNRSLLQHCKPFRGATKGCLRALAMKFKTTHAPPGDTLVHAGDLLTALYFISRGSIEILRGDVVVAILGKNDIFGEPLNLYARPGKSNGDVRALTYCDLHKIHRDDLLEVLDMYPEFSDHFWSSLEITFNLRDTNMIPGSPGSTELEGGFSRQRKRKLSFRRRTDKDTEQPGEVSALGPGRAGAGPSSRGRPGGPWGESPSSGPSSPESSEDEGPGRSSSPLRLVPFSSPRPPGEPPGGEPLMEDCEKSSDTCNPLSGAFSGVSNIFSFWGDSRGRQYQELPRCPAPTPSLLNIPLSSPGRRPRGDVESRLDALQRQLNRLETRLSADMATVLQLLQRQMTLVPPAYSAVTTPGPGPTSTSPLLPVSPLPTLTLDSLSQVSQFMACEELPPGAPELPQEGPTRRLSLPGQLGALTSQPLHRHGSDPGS
Sequence of C-C chemokine receptor type 5 (P51681 whole entry): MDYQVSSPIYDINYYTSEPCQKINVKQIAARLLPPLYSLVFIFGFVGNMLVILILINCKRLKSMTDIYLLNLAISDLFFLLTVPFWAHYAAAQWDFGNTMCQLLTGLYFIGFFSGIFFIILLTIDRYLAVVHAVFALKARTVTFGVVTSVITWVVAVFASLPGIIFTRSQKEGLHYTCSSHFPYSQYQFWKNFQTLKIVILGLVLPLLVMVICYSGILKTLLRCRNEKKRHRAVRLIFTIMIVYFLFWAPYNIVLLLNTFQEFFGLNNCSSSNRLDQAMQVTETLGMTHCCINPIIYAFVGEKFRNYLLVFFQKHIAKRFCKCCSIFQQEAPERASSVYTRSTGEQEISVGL

SMILES	IC50 [1] [nM]	EC50 [2] [nM]	inhibition at 1 µM (hERG (KCNH2)) [%]	CC50 [3] [nM]
C=CCN(C(=O)NCc1ccc(C(F)(F)F)cc1)C1CCN(C[C@H]2CN(C(=O)C3CCCC3)C[C@]2(O)c2cccc(F)c2)CC1	1.38	6	–	–
C=CCN(C(=O)OCc1ccc([N+](=O)[O-])cc1)C1CCN(C[C@H]2CN(C(=O)C3CCCC3)C[C@]2(O)c2cccc(F)c2)CC1	8.85	< 0.4	–	–
C=CCN(C(=O)NCc1ccc(C(F)(F)F)cc1)[C@H]1C[C@H]2CC[C@@H](C1)N2C[C@H]1CN(C(=O)C2CCCC2)C[C@]1(O)c1cccc(F)c1	6.77	< 0.005	89.5	12500
C=CCN(C(=O)NCc1ccc(S(=O)(=O)N(C)C)cc1)[C@H]1C[C@H]2CC[C@@H](C1)N2C[C@H]1CN(C(=O)C2CCCC2)C[C@]1(O)c1cccc(F)c1	11.4	0.0055	31.3	55000
C=CCN(C(=O)OCc1ccc([N+](=O)[O-])cc1)C1CCN(C[C@H]2CN(C(=O)C3CCCC3)C[C@]2(O)c2ccc(F)cc2)CC1	30	> 100	–	–
C=CCN(C(=O)NCc1ccc(C(F)(F)F)cc1)C1CCN(C[C@H]2CN(C(=O)C3CCCC3)C[C@]2(O)c2ccc(F)cc2)CC1	38.3	20	–	–
C=CCN(C(=O)Cc1ccc(S(=O)(=O)NC)cc1)C1CCN(C[C@H]2CN(C(=O)C3CCCC3)C[C@]2(O)c2cccc(F)c2)CC1	2.98	4.5	–	–
C=CCN(C(=O)Cc1ccc(S(=O)(=O)NC)cc1)C1CCN(C[C@H]2CN(C(=O)C3CCCC3)C[C@]2(O)c2ccc(F)cc2)CC1	11.2	> 100	–	–

Continued, in another order:

IC50 [1] [nM]	EC50 [2] [nM]	SMILES	inhibition at 1 µM (hERG (KCNH2)) [%]	CC50 [3] [nM]
14.3	> 100	C=CCN(C(=O)NCc1ccc(C(F)(F)F)cc1)[C@@H]1C[C@H]2CC[C@@H](C1)N2C[C@H]1CN(C(=O)C2CCCC2)C[C@]1(O)c1cccc(F)c1	88.6	103000
318	> 100	C=CCN(C(=O)OCc1ccc([N+](=O)[O-])cc1)C1CCN(C[C@H]2CN(C(=O)C3CCCC3)C[C@]2(O)c2ccc(OC)cc2)CC1	–	–
30	1.75	C=CCN(C(=O)NCc1ccc(F)cc1)[C@H]1C[C@H]2CC[C@@H](C1)N2C[C@H]1CN(C(=O)C2CCCC2)C[C@]1(O)c1cccc(F)c1	–	42000
–	< 0.4	C=CCN(C(=O)OCc1ccc([N+](=O)[O-])cc1)C1CCN(C[C@H]2CN(C(=O)C3CCCC3)C[C@]2(O)c2ccccc2)CC1 [NIFEVIROC]	–	–
